Here are results for one compound from US9238620B1, “Pharmaceutical uses of sulfur-containing compound” (NATIONAL SUN YAT-SEN UNIVERSITY, priority 2014, dated 2016).

Data set [1] relates to PI3K. The data set can be described thus: Western blotting in A549 cells, PI3K protein level. Type of data set: cell-based, Human. To be noted: A549 cells, 20, 30, or 40 μg/mL, 24 h. The method, then: (§1) A549 cells were plated in 10-cm dishes at a density of 3×10^6 cells per dish and incubated with 20, 30 or 40 μg/mL dihydroaustrasulfone alcohol in F-12 containing 1% (v/v) FBS for 24 h. The cells were collected, lysed in a lysis solution, and then incubated at 25° C. for 10 min. Total proteins were separated with SDS-PAGE before being transferred to PVDF membranes. The membranes were blocked with 5% (v/v) nonfat dry milk in PBS-Tween 20 for one hour and changed to an appropriate dilution of specific primary antibodies in TBS-T buffer overnight at 4° C. The blots were then incubated with horseradish peroxidase-linked secondary antibody for 1 h and then developed with the […] (ECL) reagent and exposed to Hyperfilm (Amersham, Arlington Height, Ill., USA). The data were analyzed by Gel-Logic 200 Imaging Systems, Molecular Imaging Software.
For orientation: In western blotting, separated proteins are transferred to a membrane and probed.

Data set [2] deals with FAK. The data set can be described thus: Western blotting in A549 cells, FAK phosphorylation. Format: cell-based, Human. To be noted: A549 cells, 20, 30, or 40 μg/mL, 24 h. On the procedure:
as §1

The test system of data set [3] is MMP-9. The data set can be described thus: Gelatin zymography of A549 conditioned medium, MMP-9. Format: cell-based, Human. To be noted: A549 cells, 20, 30, or 40 μg/mL, 24 h. On the procedure:
(§2) Phytomedicine 2012, 19, 768-778). Briefly, the culture medium was electrophoresed (80 V for 120 min) in an 8% SDS-PAGE gel containing 0.1% gelatin. The gel was then washed at room temperature in a solution containing 2.5% (v/v) Triton X-100 with two changes and subsequently transferred to a reaction buffer for enzymatic reaction containing 1% NaN3; 10 mM CaCl2; and 40 mM Tris-HCl, pH 8.0; at 37° C. with shaking overnight (for 12-15 h). Finally, the MMP gel was stained for […] with 0.25% (w/v) Coomassie blue in 10% acetic acid (v/v) and 20% methanol (v/v) and destained in 10% acetic acid (v/v) and 20% methanol (v/v).

The test system of data set [4] is MMP-2. The data set can be described thus: Gelatin zymography of A549 conditioned medium, MMP-2. Format: cell-based, Human. To be noted: A549 cells, 20, 30, or 40 μg/mL, 24 h. On the procedure:
as §2

Data set [5] deals with A549 cells. Briefly: Flow cytometry analysis of cell cycle and apoptosis (sub-G1). Type of data set: cell-based, Human. To be noted: 20 and 40 μg/mL, treatment for 24 h. On the procedure:
A549 cells (2×10^5) were seeded into each well of a 12-well plate (TPP; Techno Plastic Products AG, Trasadingen, Switzerland) 24 h before being treated with various concentrations of dihydroaustrasulfone alcohol for 24 h. The cells were harvested with trypsin-EDTA, washed twice with 10 mL ice-cold PBS, fixed in 70% (v/v) ethanol, and kept at 4° C. The cells were then stained with propidium iodide (PI) [100 μg/mL PI, 0.2% (v/v) Nonidet P-40, and 1 mg/mL RNase A (DNase-free) in PBS lacking Ca^2+ and Mg^2+ at a 1:1:1 ratio by volume] and the DNA contents were analyzed with flow cytometry (Becton Dickinson, San Jose, Calif., USA). The intensity of PI fluorescence was linearly amplified, and both the area and width of the fluorescence pulse were measured. Ten thousand events were acquired, and the percentage of hypodiploid (apoptosis, sub-G1) events and the percentages of cells in the G0/G1, S and G2/M phases were determined using the DNA analysis software ModFitL T, version 2.0 (Verity Software, Topsham, Me., USA).

In data set [6] the test system is ERK1/2. Briefly: Western blotting in A549 cells, ERK1/2 phosphorylation. Type of data set: cell-based, Human. To be noted: A549 cells, 20, 30, or 40 μg/mL, 24 h. The method, then: as §1
For data set [7], the system named is AKT. Briefly: Western blotting in A549 cells, AKT phosphorylation. Format: cell-based, Human. To be noted: A549 cells, 20, 30, or 40 μg/mL, 24 h. On the procedure:
as §1

Data set [8] relates to Lewis lung carcinoma (LLC). Briefly: Lewis lung carcinoma-bearing tumor model, tumor size. Type of data set: in vivo, C57BL/6J mice. To be noted: 8 or 16 mg/kg IP daily, 14-day treatment. The method, then:
(§3) The animal experiments were approved by the Institutional Animal Care and Use Committee of China Medical University (approval ID: 102-194-C). All animal care followed the institutional animal ethical guidelines of China Medical University. C57BL/6J male mice (average 25-28 g; 6 weeks old) were obtained from the Laboratory Animal Center, College of Medicine, National Taiwan University (Taipei, Taiwan). The C57BL/6J mice were kept on a 12 h light/dark cycle at 25° C. C57BL/6J mice were subcutaneously implanted with LLC cells (7×10^5 cells in 100 μL). The treatment of dihydroaustrasulfone alcohol start while all the tumors volume were larger than 100 mm^3. Eighteen mice were randomly assigned to three treatment groups (6 animals per group). Group I (untreated group) was subcutaneously grafted with LLC cells and given vehicle solvent. Group II was grafted with LLC cells and then treated with dihydroaustrasulfone alcohol (8 mg/kg). Group III was grafted with LLC cells and then treated with dihydroaustrasulfone alcohol (16 mg/kg). The dihydroaustrasulfone alcohol was diluted in normal saline and administered by IP. Body weight and tumor volume were measured every week after cell injection. The tumor width (W) and length (L) were measured every week by calipers, and the tumor volume was calculated as L×W2×0.52. The mice were treated daily for 2 weeks and then sacrificed.

The test system of data set [9] is A549 cells. The data set can be described thus: Trans-well cell migration assay. Format: cell-based, Human. To be noted: 30 or 40 μg/mL. On the procedure: Tumor cell migration was assayed in trans-well chambers (Millipore) according to the method reported by Huang et al. (Lai, K. C.; Huang, A. C.; Hsu, S. C.; Kuo, C. L.; Yang, J. S.; Wu, S. H.; Chung, J. G. Benzyl isothiocyanate (BITC) inhibits migration and invasion of human colon cancer HT29 cells by inhibiting matrix metalloproteinase-2/-9 and urokinase plasminogen (uPA) through PKC and MAPK signaling pathway. J. Agric. Food Chem. 2010, 58, 2935-2942), with some modifications. Briefly, trans-well chambers with 6.5 mm polycarbonate filters of […] pore size were used. A549 cells (1×10^4 cells/mL) and 20, 30 or 40 μg/mL of dihydroaustrasulfone alcohol were suspended in F-12 (100 μL, serum free), placed in the upper trans-well chamber, and incubated for 24 h at 37° C. Then, the cells on the upper surface of the filter were completely wiped away with a cotton swab, and the lower surface of the filter was fixed in methanol, stained with 10% Giemsa solution, and counted under a microscope at a magnification of 200×. For each replicate, the tumor cells in 10 randomly selected fields were determined and the counts were averaged.

Data set [10] relates to JNK1/2. Briefly: Western blotting in A549 cells, JNK1/2 phosphorylation. Type of data set: cell-based, Human. To be noted: A549 cells, 20, 30, or 40 μg/mL, 24 h. The method, then:
as §1

Data set [11] in a line: Lewis lung carcinoma-bearing tumor model, body weight. Type of data set: in vivo, C57BL/6J mice. To be noted: 8 or 16 mg/kg IP, days 8 or 14. The method, then: as §3
The test system of data set [12] is A549 cells. Briefly: MTT cell proliferation (cytotoxicity) assay. Type of data set: cell-based, Human. The method, then: The MTT assay was performed in the A549 cell lines to measure the cytotoxicity of dihydroaustrasulfone alcohol. All cell lines were seeded in 96-well plates with 2×10^4 cells/well in culture medium. Dihydroaustrasulfone alcohol was dissolved in PBS. The cells were treated with various concentrations of dihydroaustrasulfone alcohol as indicated in each figure. After 24 h, the number of viable cells was determined. Then, 5 mg/mL MTT was added to each well, and the plate was incubated at 37° C. for 3 h. The medium was removed, and 50 μL DMSO was added. The absorbance at 590 nm was measured for each well on an ELISA reader. The data are presented as the mean±SEM of three independent experiments.

In data set [13] the test system is A549 cells. The data set can be described thus: Wound healing assay. Type of data set: cell-based, Human. To be noted: 30 and 40 μg/mL, 18 h. The method, then:
For cell motility determination, A549 cells (2×10^5 cells/mL) were seeded in a 12-well tissue culture plate. After one day, the center of the cell monolayers was scraped with a sterile micropipette tip to create a straight zone (gap) of constant width. Then, each well was washed with PBS, and A549 cells were exposed to various concentrations of dihydroaustrasulfone alcohol (20, 30 or 40 μg/mL). Wound closure was monitored and photographed at 0 h and 18 h with a Nikon inverted microscope. To quantify the migrated cells, pictures of the initial wounded monolayers were compared with the corresponding pictures of cells at the end of the incubation. Artificial lines fitting the cutting edges were drawn on pictures of the original wounds and overlaid on the pictures of cultures after incubation. Cells that had migrated across the white lines were counted in six random fields from each triplicate treatment.

SMILES strings stand for the structures.

As usually defined, the IC50 is the point on the concentration scale where inhibition reaches its midpoint.

On to `CC(=O)CCS(=O)(=O)CCO` [dihydroaustrasulfone alcohol], for which the “protein levels of PI3K” value in data set [1] is given as “inhibited the protein levels of PI3K in a dose-dependent manner”. The “phosphorylation of FAK” value in [2] is “reduced phosphorylation of FAK”. Further, the “activity of MMP-9” value in data set [3] is “significantly inhibited”. Also, the “activity of MMP-2” value in data set [4] is given as “significantly inhibited”. The “apoptosis in the sub-G1 phase” value in [5] was “no effect”. Also, the “phosphorylation of ERK1/2” value in data set [6] was “inhibited”. For the same compound, the “phosphorylation of AKT” value in data set [7] is “decrease in the phosphorylation”. In data set [8], the “tumor size compared with the LLC control group” value was “significantly reduced”. Further, the “migration of A549 cells (trans-well)” value in [9] is “significantly decreased”. The “phosphorylation of JNK1/2” value in [10] is given as “inhibited”. The “body weights compared with the LLC control group” value in [11] is reported as “not significantly different”. The cell viability entry in data set [12] (60, 80, and 100 μg/mL, 24 h) is “significantly suppressed”. Also, the IC50 in data set [12] (Homo sapiens, A549, 24 h, read-out: IC50, viability of A549 cells) was 273 µM. The “migration of A549 cells (wound healing)” value in data set [13] was “significantly decreased”.
